Experimental data from patent publication US10758534B2 (Vertex Pharmaceuticals Incorporated, priority 2014, dated 2020).

Target: T1, F508del (Homo sapiens, UniProt P13569, DEL508-508)
T1 construct: expressed in transfected cells
Experiment: Protocol 2: FRET membrane potential optical assay (VIPR), identification of correction compounds
Format: cell-based
Conditions: F508del CFTR modulator activity; compounds of Table 1; read-out: EC30
Summary of the method: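 Mouse NIH3T3 cells, stable F508del; cpd 16 hrs, 37° C., serum-free; pos ctrl 27° C. 16 hrs. Rinse in Krebs Ringers, dye load, then add 10 μM forskolin + 20 μM genistein with Cl^−-free (gluconate) medium; depolarization by FRET voltage dyes.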

T1 sequence (P13569 with tags, fused parts or gaps DEL508-508): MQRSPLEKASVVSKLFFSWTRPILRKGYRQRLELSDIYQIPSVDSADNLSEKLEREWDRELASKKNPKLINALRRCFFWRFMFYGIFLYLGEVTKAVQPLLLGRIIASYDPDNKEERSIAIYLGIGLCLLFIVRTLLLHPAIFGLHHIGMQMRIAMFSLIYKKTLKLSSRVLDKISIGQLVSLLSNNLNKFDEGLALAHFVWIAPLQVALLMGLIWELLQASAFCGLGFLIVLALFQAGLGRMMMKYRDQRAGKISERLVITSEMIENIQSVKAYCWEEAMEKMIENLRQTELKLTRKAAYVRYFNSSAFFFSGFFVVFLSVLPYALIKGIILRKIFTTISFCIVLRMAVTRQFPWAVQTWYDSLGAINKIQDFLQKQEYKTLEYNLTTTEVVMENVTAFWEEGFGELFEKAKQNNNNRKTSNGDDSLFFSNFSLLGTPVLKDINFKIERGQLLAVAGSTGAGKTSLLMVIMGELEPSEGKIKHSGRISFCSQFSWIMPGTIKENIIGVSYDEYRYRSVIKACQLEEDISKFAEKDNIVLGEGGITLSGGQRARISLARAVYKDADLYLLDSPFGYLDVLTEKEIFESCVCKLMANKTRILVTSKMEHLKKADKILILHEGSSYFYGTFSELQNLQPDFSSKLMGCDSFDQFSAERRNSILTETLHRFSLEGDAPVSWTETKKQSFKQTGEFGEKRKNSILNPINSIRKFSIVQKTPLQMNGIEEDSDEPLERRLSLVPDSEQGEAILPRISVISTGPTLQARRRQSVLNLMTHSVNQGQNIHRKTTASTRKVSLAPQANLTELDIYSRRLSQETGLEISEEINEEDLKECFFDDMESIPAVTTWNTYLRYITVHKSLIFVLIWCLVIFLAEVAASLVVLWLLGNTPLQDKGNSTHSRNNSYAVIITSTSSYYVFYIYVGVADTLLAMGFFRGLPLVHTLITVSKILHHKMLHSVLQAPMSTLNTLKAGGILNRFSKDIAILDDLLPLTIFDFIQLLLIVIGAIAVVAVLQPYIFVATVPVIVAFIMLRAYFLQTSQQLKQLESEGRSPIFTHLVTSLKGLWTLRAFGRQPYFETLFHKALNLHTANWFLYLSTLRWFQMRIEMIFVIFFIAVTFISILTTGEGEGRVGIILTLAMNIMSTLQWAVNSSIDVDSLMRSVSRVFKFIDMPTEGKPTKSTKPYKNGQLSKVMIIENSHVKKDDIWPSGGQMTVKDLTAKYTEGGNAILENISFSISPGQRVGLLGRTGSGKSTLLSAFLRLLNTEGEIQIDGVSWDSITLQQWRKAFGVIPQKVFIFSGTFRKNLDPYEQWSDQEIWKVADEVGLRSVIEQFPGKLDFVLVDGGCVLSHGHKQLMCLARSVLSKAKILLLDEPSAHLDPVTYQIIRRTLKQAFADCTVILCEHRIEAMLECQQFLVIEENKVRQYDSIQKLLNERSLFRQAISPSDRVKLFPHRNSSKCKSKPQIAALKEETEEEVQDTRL

Row | SMILES | EC30 [nM]
1 | CC1CN(c2ncccc2C(=O)NS(=O)(=O)c2cccc(OC3CCCCCC3)n2)C(C)(C)C1 (stereo not drawn) [Compound 2252, N—[[6-(cycloheptoxy)-2-pyridyl]sulfonyl]-2-(2,2,4-trimethylpyrrolidin-1-yl)pyridine-3-carboxamide] | < 3000
2 | CCOC(=O)N1CCC(Nc2cccc(S(=O)(=O)NC(=O)c3cccnc3N3CC(C)CC3(C)C)n2)CC1 (stereo not drawn) [Compound 2253, ethyl 4-[[6-[[2-(2,2,4-trimethylpyrrolidin-1-yl)pyridine-3-carbonyl]sulfamoyl]-2-pyridyl]amino]piperidine-1-carboxylate] | 3000 to 10000
3 | CC1CN(c2ncccc2C(=O)NS(=O)(=O)c2cccc(N3CCN(c4cnccn4)CC3)n2)C(C)(C)C1 (stereo not drawn) [Compound 2254, N—[[6-(4-pyrazin-2-ylpiperazin-1-yl)-2-pyridyl]sulfonyl]-2-(2,2,4-trimethylpyrrolidin-1-yl)pyridine-3-carboxamide] | 3000 to 10000
4 | CC1CN(c2ncccc2C(=O)NS(=O)(=O)c2cccc(N3CCc4ccccc43)n2)C(C)(C)C1 (stereo not drawn) [Compound 2255, N-[(6-indolin-1-yl-2-pyridyl)sulfonyl]-2-(2,2,4-trimethylpyrrolidin-1-yl)pyridine-3-carboxamide] | < 3000
5 | CCOc1cc(C)cc(-c2ccc(C(=O)NS(=O)(=O)c3cccnc3N)c(N3C[C@@H](C)CC3(C)C)n2)n1 [Compound 2256, N-[(2-amino-3-pyridyl)sulfonyl]-6-(6-ethoxy-4-methyl-2-pyridyl)-2-[(4S)-2,2,4-trimethylpyrrolidin-1-yl]pyridine-3-carboxamide] | < 3000
6 | C[C@@H]1CN(c2nc(-c3ccccc3O)ccc2C(=O)NS(=O)(=O)c2cccnc2N)C(C)(C)C1 [Compound 2257, N-[(2-amino-3-pyridyl)sulfonyl]-6-(2-hydroxyphenyl)-2-[(4S)-2,2,4-trimethylpyrrolidin-1-yl]pyridine-3-carboxamide] | < 3000
7 | CC(C)COc1cc(F)cc(-c2ccc(C(=O)N(C)S(=O)(=O)c3cccc(N)n3)c(N3C[C@@H](C)CC3(C)C)n2)c1 [Compound 2258, N-[(6-amino-2-pyridyl)sulfonyl]-6-(3-fluoro-5-isobutoxy-phenyl)-N-methyl-2-[(4S)-2,2,4-trimethylpyrrolidin-1-yl]pyridine-3-carboxamide] | < 3000
8 | CC1CN(c2ncc(-c3cc(F)cc(F)c3)cc2C(=O)NS(=O)(=O)c2cccc(N)n2)C(C)(C)C1 (stereo not drawn) [Compound 2259, N-[(6-amino-2-pyridyl)sulfonyl]-5-(3,5-difluorophenyl)-2-(2,2,4-trimethylpyrrolidin-1-yl)pyridine-3-carboxamide] | < 3000
9 | COc1ccc2c(c1)CCN(c1cccc(S(=O)(=O)NC(=O)c3cccnc3N3CC(C)CC3(C)C)n1)C2 (stereo not drawn) [Compound 2260, N—[[6-(6-methoxy-3,4-dihydro-1H-isoquinolin-2-yl)-2-pyridyl]sulfonyl]-2-(2,2,4-trimethylpyrrolidin-1-yl)pyridine-3-carboxamide] | < 3000
10 | CC1CN(c2ncccc2C(=O)NS(=O)(=O)c2cccc(OCc3ccccc3C(F)(F)F)n2)C(C)(C)C1 (stereo not drawn) [Compound 2261, N—[[6-[[2-(trifluoromethyl)phenyl]methoxy]-2-pyridyl]sulfonyl]-2-(2,2,4-trimethylpyrrolidin-1-yl)pyridine-3-carboxamide] | < 3000
11 | CC1CN(c2ncccc2C(=O)NS(=O)(=O)c2cccc(NCCc3ccc(Cl)cc3)n2)C(C)(C)C1 (stereo not drawn) [Compound 2262, N—[[6-[2-(4-chlorophenyl)ethylamino]-2-pyridyl]sulfonyl]-2-(2,2,4-trimethylpyrrolidin-1-yl)pyridine-3-carboxamide] | < 3000
12 | Cc1nc(-c2cccc(Oc3cccc(S(=O)(=O)NC(=O)c4cccnc4N4CC(C)CC4(C)C)n3)c2)no1 (stereo not drawn) [Compound 2263, N—[[6-[3-(5-methyl-1,2,4-oxadiazol-3-yl)phenoxy]-2-pyridyl]sulfonyl]-2-(2,2,4-trimethylpyrrolidin-1-yl)pyridine-3-carboxamide] | < 3000
13 | CC1CN(c2ncccc2C(=O)NS(=O)(=O)c2cccc(OCc3cccc(Cl)c3)n2)C(C)(C)C1 (stereo not drawn) [Compound 2264, N—[[6-[(3-chlorophenyl)methoxy]-2-pyridyl]sulfonyl]-2-(2,2,4-trimethylpyrrolidin-1-yl)pyridine-3-carboxamide] | < 3000
14 | C[C@@H]1CN(c2nc3ccccc3cc2C(=O)NS(=O)(=O)c2cccc(N)n2)C(C)(C)C1 [Compound 2265, N-[(6-amino-2-pyridyl)sulfonyl]-2-[(4S)-2,2,4-trimethylpyrrolidin-1-yl]quinoline-3-carboxamide] | < 3000
15 | CC(C)COc1cccc(-c2ccc(C(=O)NS(=O)(=O)c3ccc[nH]c3=O)c(N3C[C@@H](C)CC3(C)C)n2)c1 [Compound 2267, 6-(3-isobutoxyphenyl)-N-[(2-oxo-1H-pyridin-3-yl)sulfonyl]-2-[(4S)-2,2,4-trimethylpyrrolidin-1-yl]pyridine-3-carboxamide] | < 3000
16 | COc1cccc(-c2ccc(C(=O)NS(=O)(=O)c3cccnc3N)c(N3C[C@@H](C)CC3(C)C)n2)n1 [Compound 2268, N-[(2-amino-3-pyridyl)sulfonyl]-6-(6-methoxy-2-pyridyl)-2-[(4S)-2,2,4-trimethylpyrrolidin-1-yl]pyridine-3-carboxamide] | < 3000
17 | CC1CN(c2ncccc2C(=O)NS(=O)(=O)c2cccc(OCc3cccc4ccccc34)n2)C(C)(C)C1 (stereo not drawn) [Compound 2270, N—[[6-(1-naphthylmethoxy)-2-pyridyl]sulfonyl]-2-(2,2,4-trimethylpyrrolidin-1-yl)pyridine-3-carboxamide] | < 3000
18 | C[C@@H]1CN(c2nc(-c3cc(F)cc(F)c3)ccc2C(=O)NS(=O)(=O)c2cccnc2N)C(C)(C)C1 [Compound 2272, N-[(2-amino-3-pyridyl)sulfonyl]-6-(3,5-difluorophenyl)-2-[(4S)-2,2,4-trimethylpyrrolidin-1-yl]pyridine-3-carboxamide] | < 3000
19 | CC1CN(c2ncccc2C(=O)NS(=O)(=O)c2cccc(OCc3ccccc3Cl)n2)C(C)(C)C1 (stereo not drawn) [Compound 2273, N—[[6-[(2-chlorophenyl)methoxy]-2-pyridyl]sulfonyl]-2-(2,2,4-trimethylpyrrolidin-1-yl)pyridine-3-carboxamide] | < 3000
20 | CC1CN(c2ncccc2C(=O)NS(=O)(=O)c2cccc(Nc3cccc4cnccc34)n2)C(C)(C)C1 (stereo not drawn) [Compound 2274, N—[[6-(5-isoquinolylamino)-2-pyridyl]sulfonyl]-2-(2,2,4-trimethylpyrrolidin-1-yl)pyridine-3-carboxamide] | 3000 to 10000
21 | CC1(C)C(Cc2ccccc2)CCN1c1ncccc1C(=O)NS(=O)(=O)c1cccc(N)n1 (stereo not drawn) [Compound 2275, N-[(6-amino-2-pyridyl)sulfonyl]-2-(3-benzyl-2,2-dimethyl-pyrrolidin-1-yl)pyridine-3-carboxamide] | 3000 to 10000
22 | Cc1ccc(-c2nc(-c3cc(F)cc(OCC(C)C)c3)ccc2C(=O)NS(=O)(=O)N2CC[C@@H](N)C2)cc1 [Compound 2276, N-[(3R)-3-aminopyrrolidin-1-yl]sulfonyl-6-(3-fluoro-5-isobutoxy-phenyl)-2-(p-tolyl)pyridine-3-carboxamide] | < 3000
23 | C[C@@H]1CN(c2nc(C3CCOC3)ccc2C(=O)NS(=O)(=O)c2ccccc2)C(C)(C)C1 (stereo partly drawn) [Compound 2277, N-(benzenesulfonyl)-6-tetrahydrofuran-3-yl-2-[(4S)-2,2,4-trimethylpyrrolidin-1-yl]pyridine-3-carboxamide] | < 3000
24 | CCOc1cc(F)cc(-c2ccc(C(=O)NS(=O)(=O)c3ccc[nH]c3=O)c(N3C[C@@H](C)CC3(C)C)n2)c1 [Compound 2278, 6-(3-ethoxy-5-fluoro-phenyl)-N-[(2-oxo-1H-pyridin-3-yl)sulfonyl]-2-[(4S)-2,2,4-trimethylpyrrolidin-1-yl]pyridine-3-carboxamide] | < 3000
25 | Cc1cc(-c2ccc(C(=O)NS(=O)(=O)c3cccc(N)n3)c(N3C[C@@H](C)CC3(C)C)n2)cnc1N(C)CC(C)C [Compound 2279, N-[(6-amino-2-pyridyl)sulfonyl]-6-[6-[isobutyl(methyl)amino]-5-methyl-3-pyridyl]-2-[(4S)-2,2,4-trimethylpyrrolidin-1-yl]pyridine-3-carboxamide] | < 3000
26 | C[C@@H]1CN(c2nc(-c3ccc4ccccc4c3)ccc2C(=O)NS(=O)(=O)c2cccnc2N)C(C)(C)C1 [Compound 2280, N-[(2-amino-3-pyridyl)sulfonyl]-6-(2-naphthyl)-2-[(4S)-2,2,4-trimethylpyrrolidin-1-yl]pyridine-3-carboxamide] | < 3000
27 | CC1CN(c2ncccc2C(=O)NS(=O)(=O)c2cccc(Nc3cc(F)cc(F)c3)n2)C(C)(C)C1 (stereo not drawn) [Compound 2282, N—[[6-(3,5-difluoroanilino)-2-pyridyl]sulfonyl]-2-(2,2,4-trimethylpyrrolidin-1-yl)pyridine-3-carboxamide] | < 3000
28 | CC1CN(c2ncc(-c3ccccc3OC(C)C)cc2C(=O)NS(=O)(=O)c2cccc(N)n2)C(C)(C)C1 (stereo not drawn) [Compound 2283, N-[(6-amino-2-pyridyl)sulfonyl]-5-(2-isopropoxyphenyl)-2-(2,2,4-trimethylpyrrolidin-1-yl)pyridine-3-carboxamide] | < 3000
29 | C[C@@H]1CN(c2nc(-c3ccc(F)c(F)c3)ccc2C(=O)NS(=O)(=O)c2ccc[nH]c2=O)C(C)(C)C1 [Compound 2284, 6-(3,4-difluorophenyl)-N-[(2-oxo-1H-pyridin-3-yl)sulfonyl]-2-[(4S)-2,2,4-trimethylpyrrolidin-1-yl]pyridine-3-carboxamide] | < 3000
30 | Cc1cccc(N2CCN(c3cccc(S(=O)(=O)NC(=O)c4cccnc4N4CC(C)CC4(C)C)n3)CC2)n1 (stereo not drawn) [Compound 2285, N—[[6-[4-(6-methyl-2-pyridyl)piperazin-1-yl]-2-pyridyl]sulfonyl]-2-(2,2,4-trimethylpyrrolidin-1-yl)pyridine-3-carboxamide] | < 3000
